According to patent US20100286217A1, “STABLE, LOW VOC, LOW VISCOUS BIOCIDAL FORMULATIONS AND METHOD OF MAKING SUCH FORMULATIONS” (priority 2008, published 2010):

Assay: Dissolution of IPBC in MPEG-350/DMSO versus PEG-400/DMSO
Assay type: physicochemical
Details: 60% IPBC solution
Protocol: In a 100 ml beaker is added about 25 ml of solvent, and the weight is recorded to four significant digits. The beaker is heated to 40-60° C. (depending on the active being tested) in a water bath. The solute of interest is added stepwise (all aliquot weights are recorded to four significant digits) until saturation is achieved. Once the solid remains undissolved, back-titration with known weights of solvent are performed until the solution is clear.
This example compares the viscosity and VOC content of 55 and 60% IPBC formulations in MPEG-350/DMSO and PEG-400/DMSO. For the 55% IPBC solutions, 10% DMSO is used. For the 60% solutions, only 10% DMSO is required for complete dissolution of the IPBC when MPEG is used, however, 15% DMSO is required for complete dissolution of the IPBC when PEG 400 is used. Viscosity and VOC data are in Table 6.

CCCCNC(=O)OCC#CI [IPBC, 3-iodo-2-propynyl butyl carbamate]
DMSO required for complete dissolution of the IPBC (MPEG used): 10%
DMSO required for complete dissolution of the IPBC (PEG 400 used): 15%
